This passage reports EC50, biological activity and Kd results from patent publication US10723766B2, “Derivatives of gamma-amanitin” (Heidelberg Pharma Research GmbH, priority 2015, dated 2020).

For one assay, the system named is SKOV3 cells. Put plainly: viability of SKOV3 cells treated with amatoxins (FIG. 3). Type of assay: cell-based.
For assay [1] the following is noted: Zanotti et al., 1989; cited from earlier work.
A further assay deals with RNA-polymerase II (Homo sapiens, UniProt P24928). The note with it: not covalently bound, very tight complex; read-out: KD of complex between amanitin and RNA-polymerase II; cited from earlier work.

Usually EC50 stands for the concentration at which the effect is half-maximal. The low end stands for higher potency in that assay, the high end for lower potency in that assay. In the assay on SKOV3 cells, `CC[C@H](C)[C@@H]1NC(=O)CNC(=O)C2Cc3c([nH]c4cc(O)ccc34)[S@+]([O-])CC(NC(=O)CNC1=O)C(=O)N[C@@H](CC(N)=O)C(=O)N1CC(O)C[C@H]1C(=O)N[C@@H]([C@@H](C)[C@H](C)O)C(=O)N2` (stereo partly drawn) [γ-amanitin (4), γ-amanitin] gave an EC50 of 270 nM.

With “S-deoxo-γ(R)-hydroxy-isoleucin-amaninamide”, the biological activity result in assay [1] is “biologically inactive”.

As usually defined, the Kd is the equilibrium constant for the complex coming apart. For the molecule amanitin, the Kd at RNA-polymerase II was 3 nM.
